What is called ILS is how much longer treated animals lived than controls. In general, inhibition refers to the share of the control response that was lost under treatment. Read a high inhibition as a response far below the control.

The subject of assay [1] is L1210 leukemia. Briefly: antitumor activity in L1210 leukemia (percent increase in survival time), Table 2. To be noted: 8 days. It counts as in vivo, mice. On the procedure:
Testing of the compounds of this invention against L-1210 lymphoid leukemia were carried out as follows: L-1210 leukemia was maintained by weekly passage of 10^5 L-1210 cells intraperitoneally into DBA/2 mice. Diluted ascitic fluid, 0.1 ml. (10^5 cells), was administered ip to female B6D2 F1 mice weighing about 20 g. Drugs were administered ip 24 hours after tumor transplantation and injections were continued daily for a total of eight days. A group of control mice receiving only the injection medium were maintained. Table 2 which follows gives the antitumor activity against L-1210 leukemia for certain compounds of this invention. In the table, column 1 gives the name of the compound, column 2 the dose in mg./kg., and column 3 the percent increase in survival time over controls at each dose level.

Assay [2] has as its system L-1210 Leukemia. The experiment in a line: activity vs L-1210 leukemia (T/C % survival time), Table 3. It counts as in vivo, mice. To be noted: >130 significant, hydrochloride. From the text: 3,4-Dihydroxybenzamidoxime and 3,4,5-trihydroxybenzamidoxime were subjected to a further series of tests against various transplanted tumors in mice according to the following protocols:
For L-1210 lymphoid leukemia, 20 grams CDF1 or BDF1 mice […] ip with 10^5 leukemia cells. The drug was given one day after tumor inoculation continued for an additional eight days. The mean survival time for the treated animal was compared to that of the control group. In the table, column 1 gives the name of the compound, column 2 the dose levels, and column 3 treated over control percent survival time. (In other words, a figure of 175 indicates a 75% increase in survival time.)

The subject of assay [3] is P388 Leukemia. Briefly: activity vs P388 leukemia (T/C % survival time), Table 6. Type of assay: in vivo, mice. To be noted: five treatments, >130 significant. On the procedure:
The following protocol was used:
CDF1 mice were injected ip with 10^6 cells The drug was administered in the first day after tumor inoculation and continued daily for five treatments. The mean survival time of the treated group compared to the non-treated control group equals T/C×100=T/C percent.

Assay [4] in a line: free radical scavenging ability (destruction of diphenylpicrylhydrazyl), Table 7. To be noted: 100 μM diphenylpicrylhydrazyl in acetone; test compound 25 μM, 2.5 μM (footnote). From the text: It is believed that the antineoplastic activity of the compounds of this invention is due in parts to their ability to scavenge free-radicals. Additionally, the compounds of this invention are cancer protective agents and this utility also may be a manifestation of their free-radical scavenging capability. Free-radical scavenging agents may also be useful in detoxifying mammals in whom an excess of free radicals is a cause and/or result of the toxicity. Other possible uses of free radical scavengers are to inhibit protaglandin transformation, leucotriene interconversion and lipogenesis, to act as inflammatory modulators and as food additive or preservatives to prevent lipid oxidation. The free radical scavenging ability of the compounds of the invention was determined by measuring the destruction of the stable free radical, diphenylpicrylhydrazyl, in the presence of the test compound in a manner similar to that reported by […] and Herzmann, Naturwiss, 47, 133-134 (1960). […] The test compound was added at a final concentration of 25 μM and the rate of reduction of absorpotion at […] was observed. Table 7 below gives the free radical scavenging abilities of the compounds of this invention expresses as the initial rate of decrease in optical density units/min.

Assay [5] relates to arachidonic acid induced ear edema. Briefly: arachidonic acid induced ear edema assay, Table 10. It counts as in vivo, Mice. To be noted: Experiment 1, 2 mg total dose, topical; for Mean Increase in Weight of Inflammed Ear (± S.E.): positive control 17.0 ± 0.6, p = .000. On the procedure:
The compounds of this invention because of their ability to scavenge free-radicals in vivo are capable of modulating inflammation as set forth in the following protocol: Mice received the test compound topically to each side of the right ear one hr prior to the inflammatory challenge, at which time they were challenged (except for the negative control) with 10 microliter of a 2 mg/20 microliter solution of arachidonic acid applied to each side of the right ear. One hour post-challenge, the animals were sacrificed, the right ears removed, and an 8 mm disc punched from each. These discs were then weighed. The following table gives the results of this experiment.

Assay [6] deals with T1, Δ^5-lipoxygenase (Rattus norvegicus, UniProt P12527).
T1 construct: supernatant fraction of lysed rat basophilic leukemia (RBL-1) cells; endogenous in cells; host or cells: RBL-1 cells, 49,000 g supernatant of homogenate
T1 sequence (P12527 1-673): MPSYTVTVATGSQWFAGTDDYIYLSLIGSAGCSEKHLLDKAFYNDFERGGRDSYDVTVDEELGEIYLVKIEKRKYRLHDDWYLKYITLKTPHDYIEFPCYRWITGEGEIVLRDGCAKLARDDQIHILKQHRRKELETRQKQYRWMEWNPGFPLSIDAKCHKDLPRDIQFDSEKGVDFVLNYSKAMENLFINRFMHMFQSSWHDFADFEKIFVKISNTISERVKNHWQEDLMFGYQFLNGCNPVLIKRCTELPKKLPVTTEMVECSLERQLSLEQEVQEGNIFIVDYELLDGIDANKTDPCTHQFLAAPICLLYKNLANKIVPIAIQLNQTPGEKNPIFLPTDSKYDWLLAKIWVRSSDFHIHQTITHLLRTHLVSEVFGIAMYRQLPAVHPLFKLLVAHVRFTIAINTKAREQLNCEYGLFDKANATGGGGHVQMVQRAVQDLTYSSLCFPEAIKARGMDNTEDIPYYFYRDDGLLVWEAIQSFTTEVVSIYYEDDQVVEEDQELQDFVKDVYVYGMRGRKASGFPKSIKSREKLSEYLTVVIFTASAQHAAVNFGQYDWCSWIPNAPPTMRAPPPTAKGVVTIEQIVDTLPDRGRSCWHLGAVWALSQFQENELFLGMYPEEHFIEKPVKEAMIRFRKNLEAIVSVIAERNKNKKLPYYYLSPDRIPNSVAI
Briefly: ability to inhibit Δ^5-lipoxygenase. It counts as biochemical. To be noted: RBL-1 cell supernatant. On the procedure: This enzyme is believed to initiate the synthesis of slow reacting substance of […]), an important mediator in the pathogenesis of asthma. Thus, a drug capable of inhibiting this enzyme would also help to prevent asthmatic attacks. In this determination, Δ^5 -lipoxygenase was derived from the supernatant fraction of lysed rat basophilic leukemia (RBL-1) cells. […] The Δ^5 -lipoxygenase was derived from RBL-1 cells which were lysed by homogenization in ice-cold buffer (50 mM Tris-HCl buffer, pH 7.2, containing 1 mM EDTA and 14 uM indomethacin). The homogenate was centrifuged at 4 ° C. at 49,000 g for 20 min and the resulting supernatant fraction was used as the source of Δ^5 -lipoxygenase. The enzyme was assayed at 37° using 6.7 uM (0.39 uCi/ml) [1-14C]arachidonic acid as the substrate in 50 mM Tris-HCl buffer, pH 7.2, containing 1 mM gluthatione, 3 mM CaCl2, 14 uM indomethacin, and 0.25 to 0.50 mM EDTA. […] The effect of compounds on Δ^5 -lipoxygenase activity was determined by preincubating the enzyme for 10 min at 30° in the presence or absence of various concentrations of the drug prior to addition of substrate.

The subject of assay [7] is L1210. The experiment in a line: antileukemia activity of nitriles vs L1210, Table 8. It counts as in vivo. From the text: (§1) Table 8 which follows gives anti-tumor data vs L-1210 and P-388 leukemia for these novel nitriles.
The test system of assay [8] is P-388. The experiment in a line: antileukemia activity of nitriles vs P-388, Table 8. It counts as in vivo.
Description: as §1

SMILES strings stand for the structures. Values joined by “and” are separate entries in the source; they are usually repeats but may differ in a detail not shown here. Equal values may be shown once.

Consider `Cl.NC(=NO)c1cc(O)c(O)c(O)c1` [3,4,5-trihydroxybenzamidoxime.HCl, 3,4,5-Trihydroxybenzamidoxime hydrochloride], for which, in assay [1] (196 mg/kg ip daily), the “% Increase in Survival Time” value is listed as “toxic”. The ILS at 59 mg/kg in assay [1] (Mus musculus, L1210, 192 h, 59 mg/kg ip daily) is 90%. The same molecule had an ILS at 132 mg/kg in assay [1] (Mus musculus, L1210, 192 h, 132 mg/kg ip daily) of 54.5%. Further, the ILS at 220 mg/kg in assay [1] (Mus musculus, L1210, 192 h, 220 mg/kg ip daily) stood at 63.6%. Also, the ILS at 275 mg/kg in assay [1] (Mus musculus, L1210, 192 h, 275 mg/kg ip daily) came out at 30.6%. Moreover, the “t/c % (mean survival time)” value in assay [2] (25 mg/kg) was 136% and 121%; in assay [2] (50 mg/kg), 138% and 137%; in assay [2] (100 mg/kg), 152% and 137%; in assay [2] (200 mg/kg), 212% and 182%. For the same molecule, the “T/C % (mean survival time)” value in assay [3] (50 mg/kg daily, hydrochloride) is 142% and 138% and 141%; in assay [3] (100 mg/kg daily, hydrochloride), 150% and 154% and 138% and 148%; in assay [3] (200 mg/kg daily, hydrochloride), 155% and 177%; in assay [3] (300 mg/kg daily) it was 163%; in assay [3] (400 mg/kg daily) it was “toxic”. The “initial rate of decrease in optical density (518 nm)” value in assay [4] is recorded as 0.929 units/min. Also, the “Percent Inhibition vs. positive control” value in assay [5] is given as 44%. Also, in assay [5], the “Mean Increase in Weight of Inflammed Ear (± S.E.)” value is recorded as 9.5 ± 0.3 mg. Further, testing at 1 µM in assay [6] (1 uM) gave an inhibition of 24%. This molecule gave an inhibition at 10 µM in assay [6] of 90%.
Consider `Cl.N=C(N)c1cc(O)c(O)c(O)c1` [3,4,5-trihydroxybenzamidine.HCl, 3,4,5-trihydroxybenzamidine-HCl], for which, in assay [1] (Mus musculus, L1210, 192 h, 200 mg/kg ip daily), the ILS at 200 mg/kg came out at 43.5%. Further, the ILS at 300 mg/kg in assay [1] (Mus musculus, L1210, 192 h, 300 mg/kg ip daily) was found to be 10.2%. In assay [4], the “initial rate of decrease in optical density (518 nm)” value was 4.912 units/min. In assay [5], the “Percent Inhibition vs. positive control” value came out at 24% and the “Mean Increase in Weight of Inflammed Ear (± S.E.)” value stood at 13.0 ± 0.3 mg. The inhibition at 10 µM in assay [6] worked out at 75%.
As to `N#Cc1cc(O)c(O)c(O)c1` [3,4,5-trihydroxybenzonitrile], the “% Increase in Survival Time” value in assay [7] (118 mg/kg) was 34.0%; in assay [7] (157 mg/kg) it was 28.0%; in assay [8] (50 mg/kg), 15% and 20%; in assay [8] (200 mg/kg) it was 26% and 39%; in assay [8] (400 mg/kg), 26%.
